Tests used:
[1] = molecular target: T1, c-KIT kinase (Seq ID no. 1) (Homo sapiens, UniProt P10721); test: c-KIT Kinase Assay (pyruvate kinase/lactate dehydrogenase coupled); assay type: biochemical; details: enzymatic assay, ATP 200 μM; read-out: KIT (wt)
T1 construct: GST (N); TEV cleavage site (N); purchased deCODE Biostructures
Protocol: In this assay, the oxidation of NADH (measured by decrease in absorbance at 340 nm) was continuously monitored spectrophotometrically. […] The absorption at 340 nm was monitored continuously for 2 hours at 30° C. on Synergy 2 (BioTeK). The reaction rate was calculated using the 0 to 1 h time frame. Percent inhibition was obtained by comparison of reaction rate with that of a control (i.e. with no test compound). IC50 values were calculated from a series of percent inhibition values determined at a range of inhibitor concentrations using software routines as implemented in the GraphPad Prism software package. The protein construct was prepared by deCODE Biostructures using procedures known in the art. The construct contains […] of cKit, an N-terminal tag, a GST-fusion sequence and a TEV cleavage site.

[2] = molecular target: T2, c-KIT V654A kinase (Seq ID no. 2) (Homo sapiens, UniProt P10721, V654A); test: c-KIT V654A Kinase Assay; assay type: biochemical; details: enzymatic assay, ATP 200 μM
T2 construct: V654A c-Kit (residues T544-V976 with N-terminal GST fusion, 47 nM); purchased deCODE Biostructures
Protocol: (§1) In this assay, the oxidation of NADH (measured by decrease in absorbance at 340 nm) was continuously monitored spectrophotometrically. […] The inhibition reaction was started by mixing serial diluted test compound with the above reaction mixture. The absorption at 340 nm was monitored continuously for 6 hours at 30° C. on Synergy 2 plate reader (BioTech).
The protein construct was prepared by deCODE Biostructures using procedures known in the art. The construct contains residues T544-V976 of cKit, an N-terminal tag, a GST-fusion sequence and a TEV cleavage site. This construct is identical to Seq ID no.

[3] = molecular target: T3, c-KIT D816H kinase (Seq ID no. 3) (Homo sapiens, UniProt P10721, D816H); test: c-KIT D816H Kinase Assay; assay type: biochemical; details: enzymatic assay, ATP 200 μM
T3 construct: GST (N); TEV cleavage site (N); purchased deCODE Biostructures
Protocol: (§2) In this assay, the oxidation of NADH (measured by decrease in absorbance at 340 nm) was continuously monitored spectrophotometrically. […] The inhibition reaction was started by mixing serial diluted test compound with the above reaction mixture. The absorption at 340 nm was monitored continuously for 6 hours at 30° C. on Synergy 2 plate reader (BioTech). […] The protein construct was prepared by deCODE Biostructures using procedures known in the art. The construct contains […] of cKit, an N-terminal tag, a GST-fusion sequence and a TEV cleavage site. This construct is identical to Seq ID no. 1 except for the D816H mutation.

[4] = molecular target: T4, c-KIT D816V kinase (Seq ID no. 4) (Homo sapiens, UniProt P10721, D816V); test: c-KIT D816V kinase Assay; assay type: biochemical; details: enzymatic assay, ATP 200 uM
T4 construct: D816V c-KIT (residues T544-V976 with N-terminal GST fusion, 16 nM); purchased deCODE Biostructures
Protocol: as §1, with “5” for “6”
The protein construct was prepared by deCODE Biostructures using procedures known in the art. The construct contains residues T544-V976 of cKit, an N-terminal tag, a GST-fusion sequence and a TEV cleavage site. This construct is identical to Seq ID no. 1 except for the D816V mutation.

[5] = molecular target: T5, c-KIT T670I kinase (Seq ID no. 6) (Homo sapiens, UniProt P10721, T670I); test: c-KIT T670I Kinase Assay; assay type: biochemical; details: enzymatic assay, ATP 200 uM
T5 construct: GST (N); TEV cleavage site (N); purchased deCODE Biostructures
Protocol: as §2, with “5” for “6”, “no.” for “no. 1 except for the D816H mutation.”

[6] = molecular target: Phospho-KIT (Tyr719) in GIST48 cells (Homo sapiens, UniProt P10721); test: GIST48 KIT Western Blot; assay type: cell-based; details: 4 hours, read-out: pKIT suppression by western blot analysi GIST48
[7] = molecular target: Phospho-KIT (Tyr719) in GIST430 cells (Homo sapiens, UniProt P10721); test: GIST430 KIT Western Blot; assay type: cell-based; details: 4 hours, read-out: pKIT suppression by western blot analysi GIST430
GIST430 cells = test: GIST 430 Cell Proliferation Assay; assay type: cell-based; details: Homo sapiens, resazurin, 115 hours + 5 hours
Protocol: GIST48, GIST430, and GIST882 cells were obtained from J. Fletcher (Brigham and Women's Hospital, Boston, Mass.). GIST T1 cells were obtained from B. Rubin (Cleveland Clinic, Cleveland, Ohio) and Professor Takahiro Taguchi (Kochi Medical School, Nankoku, Kochi, Japan). Briefly, GIST48 and GIST 882 cells were grown in RPMI 1640 medium supplemented with 15% characterized fetal bovine serum (Invitrogen, Carlsbad, Calif.), 1 unit/mL penicillin G, 1 μg/ml streptomycin, and 0.29 mg/mL L-glutamine at 37° C., 5% CO2, and 95% humidity. GIST430 cells were grown in Ham's F10 medium supplemented with 15% characterized fetal bovine serum (Invitrogen, Carlsbad, Calif.), 30 mg/L bovine pituitary extract (BD Biosciences, San Jose, Calif.), 0.5% Mito+ serum extender (BD Biosciences, San Jose, Calif.), 1 unit/mL penicillin G, 1 μg/ml streptomycin, and 0.29 mg/mL L-glutamine at 37° C., 5% CO2, 95% humidity. GIST T1 cells were grown in DMEM medium supplemented with 10% characterized fetal bovine serum (Invitrogen, Carlsbad, Calif.), 1 unit/mL penicillin G, 1 ng/ml streptomycin, and 0.29 mg/mL L-glutamine at 37° C., 5% CO2, and 95% humidity.
A serial dilution of test compound was dispensed into a 384-well black clear bottom plate (Corning, Corning, N.Y.). Two thousand five-hundred cells were added per well in 50 μL complete growth medium. Plates were incubated for 115 hours at 37° C., 5% CO2, 95% humidity. At the end of the incubation period 10 μL of a 440 μM solution of resazurin (Sigma, St. Louis, Mo.) in PBS was added to each well and incubated for an additional 5 hours at 37° C., 5% CO2, 95% humidity. Plates were read on a Synergy2 reader (Biotek, Winooski, Vt.) using an excitation of 540 nm and an emission of 600 nm.

[8] = molecular target: T6, c-KIT VVDV kinase (V559 and V560 deleted and D816V mutation, Seq ID no. 5) (Homo sapiens, UniProt P10721, D816V/DEL559-560); test: cKIT-VVDV Kinase Assay; assay type: biochemical; details: enzymatic assay, ATP 200 uM
T6 construct: This construct contains residues T544-V976 of cKit (except for the D816V mutation and the deletion of residues V559 and V560); GST (N); TEV cleavage site (N); purchased deCODE Biostructures
Protocol: as §2, with “for 5” for “for 6”, “art. This” for “art. The”, “of cKit (except for the D816V […]),” for “of cKit,”, “the D816V […].” for “the D816H mutation.”

[9] = molecular target: T7, Phospho-KIT (Tyr719) in GIST882 cells (Homo sapiens, UniProt P10721, K642E); test: GIST882 KIT Western Blot; assay type: cell-based; details: 4 hours, read-out: pKIT suppression by western blot analysi GIST 882
T7 construct: endogenous in cells; host or cells: GIST882
Protocol: GIST48, GIST430, and GIST882 cells were obtained from J. Fletcher (Brigham and Women's Hospital, Boston, Mass.). GIST T1 cells were obtained from B. Rubin (Cleveland Clinic, Cleveland, Ohio) and Professor Takahiro Taguchi (Kochi Medical School, Nankoku, Kochi, Japan). […] GIST430 cells were grown in Ham's F10 medium supplemented with 15% characterized fetal bovine serum (Invitrogen, Carlsbad, Calif.), 30 mg/L bovine pituitary extract (BD Biosciences, San Jose, Calif.), 0.5% Mito+ serum extender (BD Biosciences, San Jose, Calif.), 1 unit/mL penicillin G, 1 μg/ml streptomycin, and 0.29 mg/mL L-glutamine at 37° C., 5% CO2, 95% humidity. GIST T1 cells were grown in DMEM medium supplemented with 10% characterized fetal bovine serum (Invitrogen, Carlsbad, Calif.), 1 unit/mL penicillin G, 1 ng/ml streptomycin, and 0.29 mg/mL L-glutamine at 37° C., 5% CO2, and 95% humidity. Cells were allowed to expand until reaching 70-95% confluence at which point they were subcultured or harvested for assay use.
Two hundred fifty thousand cells were added per well in a 24-well tissue-culture treated plate. Cells were then incubated overnight at 37° C., 5% CO2, 95% humidity. Medium was aspirated, cells were washed with PBS, and serum-free RPMI1640 medium was added. A serial dilution of test compound was added to plates containing cells and plates were incubated for 4 hours at 37° C., 5% CO2, 95% humidity. Cells were washed with PBS, then lysed. Cell lysates were separated by SDS-PAGE and transferred to PVDF. Phospho-KIT (Tyr719) was detected using an antibody from Cell Signaling Technology (Beverly, Mass.), ECL Plus detection reagent (GE Healthcare, Piscataway, N.J.) and a Molecular Devices Storm 840 phosphorimager in fluorescence mode. Blots were stripped and probed for total KIT using an antibody from Santa Cruz Biotech (Santa Cruz, Calif.). IC50 values were calculated using Prism software (Graphpad, San Diego, Calif.).

T5 sequence (P10721 544-976 T670I): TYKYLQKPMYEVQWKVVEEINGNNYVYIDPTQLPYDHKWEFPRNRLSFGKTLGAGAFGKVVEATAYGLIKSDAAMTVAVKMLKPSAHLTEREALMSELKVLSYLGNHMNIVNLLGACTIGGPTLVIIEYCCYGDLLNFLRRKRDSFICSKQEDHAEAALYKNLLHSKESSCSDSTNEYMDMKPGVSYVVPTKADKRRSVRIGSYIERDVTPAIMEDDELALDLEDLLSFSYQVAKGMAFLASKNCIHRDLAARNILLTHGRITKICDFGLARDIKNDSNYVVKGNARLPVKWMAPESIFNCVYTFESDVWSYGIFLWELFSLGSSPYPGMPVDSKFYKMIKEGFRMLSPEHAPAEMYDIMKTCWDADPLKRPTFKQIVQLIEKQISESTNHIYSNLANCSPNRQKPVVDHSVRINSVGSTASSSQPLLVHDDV
T4 sequence (P10721 544-976 D816V): as the sequence (P10721 544-976 T670I) above, with I127T, D273V counted along it
Chain of Phospho-KIT (Tyr719) in GIST48 cells (P10721 whole entry V560D/D820A, form open): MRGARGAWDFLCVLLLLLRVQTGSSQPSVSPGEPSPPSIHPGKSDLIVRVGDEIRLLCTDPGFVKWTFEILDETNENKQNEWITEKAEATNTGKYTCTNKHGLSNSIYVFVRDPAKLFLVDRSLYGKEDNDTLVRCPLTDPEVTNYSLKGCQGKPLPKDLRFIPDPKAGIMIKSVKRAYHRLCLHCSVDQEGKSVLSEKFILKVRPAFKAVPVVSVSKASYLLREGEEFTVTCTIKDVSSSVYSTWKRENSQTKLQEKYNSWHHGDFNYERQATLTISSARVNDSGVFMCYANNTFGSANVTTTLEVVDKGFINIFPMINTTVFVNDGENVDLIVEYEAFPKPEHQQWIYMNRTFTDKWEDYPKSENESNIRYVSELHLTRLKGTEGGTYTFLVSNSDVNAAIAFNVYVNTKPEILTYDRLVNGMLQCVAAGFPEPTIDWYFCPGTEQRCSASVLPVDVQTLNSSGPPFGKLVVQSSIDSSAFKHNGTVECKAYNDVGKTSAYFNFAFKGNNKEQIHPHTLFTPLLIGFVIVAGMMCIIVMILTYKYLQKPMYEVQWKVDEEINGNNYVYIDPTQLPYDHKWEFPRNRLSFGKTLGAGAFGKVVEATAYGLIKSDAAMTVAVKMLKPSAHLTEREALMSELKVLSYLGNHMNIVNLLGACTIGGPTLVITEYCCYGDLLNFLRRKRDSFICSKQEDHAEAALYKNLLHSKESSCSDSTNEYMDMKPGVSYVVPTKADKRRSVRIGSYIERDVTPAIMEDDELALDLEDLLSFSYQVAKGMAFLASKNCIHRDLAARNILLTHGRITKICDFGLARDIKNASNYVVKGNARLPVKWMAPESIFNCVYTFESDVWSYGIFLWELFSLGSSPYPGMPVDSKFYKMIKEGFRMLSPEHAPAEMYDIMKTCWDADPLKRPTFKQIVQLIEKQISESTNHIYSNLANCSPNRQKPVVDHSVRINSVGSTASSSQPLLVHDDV
Chain of Phospho-KIT (Tyr719) in GIST430 cells (P10721 with tags, fused parts or gaps DEL560-576/V654A, form open): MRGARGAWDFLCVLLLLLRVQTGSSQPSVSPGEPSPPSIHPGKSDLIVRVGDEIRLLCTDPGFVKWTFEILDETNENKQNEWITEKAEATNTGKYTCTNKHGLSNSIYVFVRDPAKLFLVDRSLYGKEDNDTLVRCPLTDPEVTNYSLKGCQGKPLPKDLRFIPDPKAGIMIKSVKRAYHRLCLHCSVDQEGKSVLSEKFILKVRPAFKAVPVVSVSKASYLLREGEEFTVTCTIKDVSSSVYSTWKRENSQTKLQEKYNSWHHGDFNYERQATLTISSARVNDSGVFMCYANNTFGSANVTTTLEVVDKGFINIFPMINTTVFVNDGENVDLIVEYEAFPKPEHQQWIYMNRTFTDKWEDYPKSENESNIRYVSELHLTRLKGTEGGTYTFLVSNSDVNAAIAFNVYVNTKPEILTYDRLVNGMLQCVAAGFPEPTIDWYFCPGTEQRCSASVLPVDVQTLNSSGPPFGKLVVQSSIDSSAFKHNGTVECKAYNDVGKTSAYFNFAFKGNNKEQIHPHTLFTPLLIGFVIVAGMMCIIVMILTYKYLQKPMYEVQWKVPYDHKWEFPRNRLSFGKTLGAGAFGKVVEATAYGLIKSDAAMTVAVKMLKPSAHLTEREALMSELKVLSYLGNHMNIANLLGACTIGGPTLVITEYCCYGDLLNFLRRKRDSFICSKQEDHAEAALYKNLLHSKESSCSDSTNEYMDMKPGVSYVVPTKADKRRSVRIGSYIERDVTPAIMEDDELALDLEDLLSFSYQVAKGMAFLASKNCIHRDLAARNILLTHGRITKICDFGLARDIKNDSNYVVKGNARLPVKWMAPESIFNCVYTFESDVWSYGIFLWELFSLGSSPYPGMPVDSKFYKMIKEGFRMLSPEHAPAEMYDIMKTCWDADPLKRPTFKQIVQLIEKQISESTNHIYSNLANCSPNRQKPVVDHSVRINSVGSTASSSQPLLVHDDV
T3 sequence (P10721 544-976 D816H): as the sequence (P10721 544-976 T670I) above, with I127T, D273H counted along it
T2 sequence (P10721 544-976 V654A): as the sequence (P10721 544-976 T670I) above, with V111A, I127T counted along it
T1 sequence (P10721 with tags, fused parts or gaps): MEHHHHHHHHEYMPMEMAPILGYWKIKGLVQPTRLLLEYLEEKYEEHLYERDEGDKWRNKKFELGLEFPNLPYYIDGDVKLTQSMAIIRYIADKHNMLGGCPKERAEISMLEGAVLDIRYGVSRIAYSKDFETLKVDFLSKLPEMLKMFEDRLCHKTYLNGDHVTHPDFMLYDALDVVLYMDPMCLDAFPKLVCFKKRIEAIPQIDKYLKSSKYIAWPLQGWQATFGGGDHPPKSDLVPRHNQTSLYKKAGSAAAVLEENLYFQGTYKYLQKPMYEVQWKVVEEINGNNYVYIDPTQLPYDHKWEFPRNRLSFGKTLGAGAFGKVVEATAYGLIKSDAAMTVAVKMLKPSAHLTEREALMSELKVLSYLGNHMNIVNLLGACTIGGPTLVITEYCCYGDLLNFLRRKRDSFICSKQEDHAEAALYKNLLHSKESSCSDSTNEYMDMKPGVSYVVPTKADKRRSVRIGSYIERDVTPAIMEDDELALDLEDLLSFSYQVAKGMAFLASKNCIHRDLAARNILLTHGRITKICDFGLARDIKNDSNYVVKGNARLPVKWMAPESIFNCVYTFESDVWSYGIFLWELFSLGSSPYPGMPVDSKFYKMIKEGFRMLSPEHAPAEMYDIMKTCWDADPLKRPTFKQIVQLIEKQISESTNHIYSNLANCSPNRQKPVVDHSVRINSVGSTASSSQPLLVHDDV
T6 sequence (P10721 with tags, fused parts or gaps DEL559-560/D816V): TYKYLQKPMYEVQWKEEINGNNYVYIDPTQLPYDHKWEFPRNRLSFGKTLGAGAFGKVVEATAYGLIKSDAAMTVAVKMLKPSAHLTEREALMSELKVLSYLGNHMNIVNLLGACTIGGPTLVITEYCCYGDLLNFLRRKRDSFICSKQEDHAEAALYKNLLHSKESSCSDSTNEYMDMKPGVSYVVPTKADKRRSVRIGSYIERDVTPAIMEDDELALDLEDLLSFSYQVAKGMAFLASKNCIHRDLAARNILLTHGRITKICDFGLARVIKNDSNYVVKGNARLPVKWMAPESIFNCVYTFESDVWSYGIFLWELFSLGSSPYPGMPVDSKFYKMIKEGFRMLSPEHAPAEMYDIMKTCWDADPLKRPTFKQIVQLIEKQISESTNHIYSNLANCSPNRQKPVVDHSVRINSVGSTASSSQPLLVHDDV
T7 sequence (P10721 26-976 K642E): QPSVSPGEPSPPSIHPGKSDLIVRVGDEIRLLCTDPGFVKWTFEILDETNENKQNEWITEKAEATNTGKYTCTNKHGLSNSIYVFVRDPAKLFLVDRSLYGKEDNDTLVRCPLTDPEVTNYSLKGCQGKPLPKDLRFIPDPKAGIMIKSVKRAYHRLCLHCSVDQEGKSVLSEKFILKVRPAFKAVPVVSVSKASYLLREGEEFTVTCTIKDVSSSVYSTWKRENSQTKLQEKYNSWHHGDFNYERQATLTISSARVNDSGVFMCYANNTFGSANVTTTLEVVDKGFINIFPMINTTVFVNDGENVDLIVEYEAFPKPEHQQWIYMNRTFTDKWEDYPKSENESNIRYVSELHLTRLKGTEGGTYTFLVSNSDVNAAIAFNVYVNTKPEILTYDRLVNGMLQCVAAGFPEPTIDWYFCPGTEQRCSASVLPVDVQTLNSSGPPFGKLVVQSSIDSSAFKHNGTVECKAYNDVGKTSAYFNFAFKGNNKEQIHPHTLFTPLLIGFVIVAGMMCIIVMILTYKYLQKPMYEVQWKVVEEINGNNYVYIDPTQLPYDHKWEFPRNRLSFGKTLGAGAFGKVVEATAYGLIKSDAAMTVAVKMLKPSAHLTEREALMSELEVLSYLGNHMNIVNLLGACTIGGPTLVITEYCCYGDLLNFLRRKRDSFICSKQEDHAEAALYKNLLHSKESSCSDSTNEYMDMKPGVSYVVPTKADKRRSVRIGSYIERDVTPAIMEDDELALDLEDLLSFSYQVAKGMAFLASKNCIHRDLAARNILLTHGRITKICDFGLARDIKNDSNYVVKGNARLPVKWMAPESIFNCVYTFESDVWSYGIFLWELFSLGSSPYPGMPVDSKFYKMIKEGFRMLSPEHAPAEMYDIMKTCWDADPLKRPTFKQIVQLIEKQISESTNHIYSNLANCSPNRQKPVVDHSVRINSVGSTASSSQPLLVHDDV

Row | SMILES | IC50 [1] | IC50 [2] | IC50 [3] | IC50 [4] | IC50 [5] | IC50 [6] | IC50 [7] | IC50 [8] | IC50 [9] | IC50 (GIST430 cells)
1 | Cc1cc(F)c(NC(=O)Nc2ccccc2)cc1-c1cc2cnc(NC(=O)N3CCC3)cc2n(C(C)C)c1=O [Example 109, N-(3-(4-fluoro-2-methyl-5-(3-phenylureido)phenyl)-1-isopropyl-2-oxo-1,2-dihydro-1,6-naphthyridin-7-yl)azetidine-1-carboxamide] | 0.01 to 0.1 µM | 0.01 to 0.1 µM | 0.01 to 0.1 µM | 0.01 to 0.1 µM | 0.01 to 0.1 µM | 0.01 to 0.1 µM |  |  |  | 
2 | CCn1c(=O)c(-c2cc(NC(=O)Nc3ccccc3)c(F)cc2Br)cc2cnc(NC(C)=O)cc21 [Example 53, 1-(5-(7-acetamido-1-ethyl-2-oxo-1,2-dihydro-1,6-naphthyridin-3-yl)-4-bromo-2-fluorophenyl)-3-phenylurea] | < 0.01 µM | 0.01 to 0.1 µM |  | < 0.01 µM | 0.01 to 0.1 µM | 0.1 to 1 µM | < 0.01 µM | < 0.01 µM | 0.01 to 0.1 µM | 
3 | CC(=O)Nc1cc2c(cn1)cc(-c1cc(NC(=O)Nc3cccc(F)c3)c(F)cc1Cl)c(=O)n2C(C)C [Example 99, N-(3-(2-chloro-4-fluoro-5-(3-(3-fluorophenyl)ureido)phenyl)-1-isopropyl-2-oxo-1,2-dihydro-1,6-naphthyridin-7-yl)acetamide] | < 0.01 µM | 0.01 to 0.1 µM | 0.01 to 0.1 µM | < 0.01 µM | 0.01 to 0.1 µM |  |  |  |  | 
4 | CCn1c(=O)c(-c2cc(NC(=O)Nc3ccccc3F)c(F)cc2C)cc2cnc(NC)cc21 [Example 38, 1-(5-(1-ethyl-7-(methylamino)-2-oxo-1,2-dihydro-1,6-naphthyridin-3-yl)-2-fluoro-4-methylphenyl)-3-(2-fluorophenyl)urea] |  |  |  |  |  | > 1 µM | 0.01 to 0.1 µM |  |  | 0.01 to 0.1 µM
5 | CCn1c(=O)c(-c2cc(NC(=O)Nc3cccc(Cl)c3)c(F)cc2F)cc2cnc(NC)cc21 [Example 17, 1-(3-chlorophenyl)-3-(5-(1-ethyl-7-(methylamino)-2-oxo-1,2-dihydro-1,6-naphthyridin-3-yl)-2,4-difluorophenyl)urea] |  |  |  | 0.01 to 0.1 µM |  | 0.01 to 0.1 µM | 0.01 to 0.1 µM | 0.1 to 1 µM |  | 

The next lines start with results.

Row | IC50 [1] | IC50 [2] | IC50 [3] | IC50 [4] | IC50 [5] | IC50 [6] | IC50 [7] | IC50 [8] | IC50 [9] | SMILES | IC50 (GIST430 cells)
6 |  |  |  |  |  | 0.1 to 1 µM | 0.01 to 0.1 µM |  |  | CCn1c(=O)c(-c2cc(NC(=O)Nc3ccccc3)c(F)cc2C)cc2cnc(NC)cc21 [Example 23, 1-(5-(1-ethyl-7-(methylamino)-2-oxo-1,2-dihydro-1,6-naphthyridin-3-yl)-2-fluoro-4-methylphenyl)-3-phenylurea] | 0.01 to 0.1 µM
7 | < 0.01 µM | 0.01 to 0.1 µM | < 0.01 µM | < 0.01 µM | 0.01 to 0.1 µM |  |  |  |  | CCn1c(=O)c(-c2cc(NC(=O)Nc3ccccc3)c(F)cc2C)cc2cnc(Nc3cnn(C)c3)cc21 [Example 115, 1-(5-(1-ethyl-7-((1-methyl-1H-pyrazol-4-yl)amino)-2-oxo-1,2-dihydro-1,6-naphthyridin-3-yl)-2-fluoro-4-methylphenyl)-3-phenylurea] | 

— patent US8940756B2, “Dihydronaphthyridines and related compounds useful as kinase inhibitors for the treatment of proliferative diseases” (Deciphera Pharmaceuticals, Inc., priority 2012, dated 2015)
